Data as given in the kinase profiling compilation of Christmann-Franck et al. (2016).

What was measured:
Assay in all cases: KINOMEscan competition binding
Conditions in all cases: compound 10.0 µM
ACVR2B (human) = ACVR2B (human) (UniProt Q13705)
AXL (human) = AXL (human) (UniProt P30530)
CAMK2A (human) = CAMK2A (human) (UniProt Q9UQM7)
CDK11B (human) = CDK11B (human) (UniProt P21127)
CSNK1G3 (human) = CSNK1G3 (human) (UniProt Q9Y6M4)
EPHA5 (human) = EPHA5 (human) (UniProt P54756)
FER (human) = FER (human) (UniProt P16591)
FES (human) = FES (human) (UniProt P07332)
GSK3A (human) = GSK3A (human) (UniProt P49840)
IKBKB (human) = IKBKB (human) (UniProt O14920)
ITK (human) = ITK (human) (UniProt Q08881)
[1] = biological target: JAK1 JH2 pseudokinase (human) (UniProt P23458)
[2] = test system: KIT (human), P10721 [D816V]
LCK (human) = LCK (human) (UniProt P06239)
LIMK2 (human) = LIMK2 (human) (UniProt P53671)
MAP2K3 (human) = MAP2K3 (human) (UniProt P46734)
MAP3K12 (human) = MAP3K12 (human) (UniProt Q12852)
MAP3K3 (human) = MAP3K3 (human) (UniProt Q99759)
MAPK15 (human) = MAPK15 (human) (UniProt Q8TD08)
MAPK6 (human) = MAPK6 (human) (UniProt Q16659)
MARK4 (human) = MARK4 (human) (UniProt Q96L34)
MST4 (human) = MST4 (human) (UniProt Q9P289)
MYLK4 (human) = MYLK4 (human) (UniProt Q86YV6)
NEK5 (human) = NEK5 (human) (UniProt Q6P3R8)
NUAK2 (human) = NUAK2 (human) (UniProt Q9H093)
PAK2 (human) = PAK2 (human) (UniProt Q13177)
PDGFRB (human) = PDGFRB (human) (UniProt P09619)
PIK3CD (human) = PIK3CD (human) (UniProt O00329)
PIP5K1A (human) = PIP5K1A (human) (UniProt Q99755)
PRKD1 (human) = PRKD1 (human) (UniProt Q15139)
PRKG2 (human) = PRKG2 (human) (UniProt Q13237)
ROCK2 (human) = ROCK2 (human) (UniProt O75116)
ROS1 (human) = ROS1 (human) (UniProt P08922)
RPS6KA5 KD2 (human) = RPS6KA5 KD2 (human) (UniProt O75582)
SIK1 (human) = SIK1 (human) (UniProt P57059)
TEC (human) = TEC (human) (UniProt P42680)
TEK (human) = TEK (human) (UniProt Q02763)
TESK1 (human) = TESK1 (human) (UniProt Q15569)
TGFBR2 (human) = TGFBR2 (human) (UniProt P37173)
TXK (human) = TXK (human) (UniProt P42681)

MAP3K3 (human), sequence (Q99759 whole entry, looked up): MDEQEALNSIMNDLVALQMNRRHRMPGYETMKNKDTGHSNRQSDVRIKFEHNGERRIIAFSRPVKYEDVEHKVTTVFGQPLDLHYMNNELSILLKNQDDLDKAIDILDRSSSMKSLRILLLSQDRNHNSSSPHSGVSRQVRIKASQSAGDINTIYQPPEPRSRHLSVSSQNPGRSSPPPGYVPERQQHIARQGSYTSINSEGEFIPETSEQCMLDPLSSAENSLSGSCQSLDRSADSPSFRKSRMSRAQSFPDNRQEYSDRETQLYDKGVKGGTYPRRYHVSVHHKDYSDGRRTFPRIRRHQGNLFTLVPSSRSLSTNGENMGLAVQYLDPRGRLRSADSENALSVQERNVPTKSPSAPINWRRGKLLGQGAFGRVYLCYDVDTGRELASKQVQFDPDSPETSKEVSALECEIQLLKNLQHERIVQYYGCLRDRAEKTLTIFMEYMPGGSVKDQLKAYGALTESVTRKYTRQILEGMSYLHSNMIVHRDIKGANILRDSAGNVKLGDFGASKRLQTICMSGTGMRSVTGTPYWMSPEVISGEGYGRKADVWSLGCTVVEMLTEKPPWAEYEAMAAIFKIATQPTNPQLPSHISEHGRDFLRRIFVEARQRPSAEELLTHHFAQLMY
PDGFRB (human), sequence (P09619 whole entry, looked up): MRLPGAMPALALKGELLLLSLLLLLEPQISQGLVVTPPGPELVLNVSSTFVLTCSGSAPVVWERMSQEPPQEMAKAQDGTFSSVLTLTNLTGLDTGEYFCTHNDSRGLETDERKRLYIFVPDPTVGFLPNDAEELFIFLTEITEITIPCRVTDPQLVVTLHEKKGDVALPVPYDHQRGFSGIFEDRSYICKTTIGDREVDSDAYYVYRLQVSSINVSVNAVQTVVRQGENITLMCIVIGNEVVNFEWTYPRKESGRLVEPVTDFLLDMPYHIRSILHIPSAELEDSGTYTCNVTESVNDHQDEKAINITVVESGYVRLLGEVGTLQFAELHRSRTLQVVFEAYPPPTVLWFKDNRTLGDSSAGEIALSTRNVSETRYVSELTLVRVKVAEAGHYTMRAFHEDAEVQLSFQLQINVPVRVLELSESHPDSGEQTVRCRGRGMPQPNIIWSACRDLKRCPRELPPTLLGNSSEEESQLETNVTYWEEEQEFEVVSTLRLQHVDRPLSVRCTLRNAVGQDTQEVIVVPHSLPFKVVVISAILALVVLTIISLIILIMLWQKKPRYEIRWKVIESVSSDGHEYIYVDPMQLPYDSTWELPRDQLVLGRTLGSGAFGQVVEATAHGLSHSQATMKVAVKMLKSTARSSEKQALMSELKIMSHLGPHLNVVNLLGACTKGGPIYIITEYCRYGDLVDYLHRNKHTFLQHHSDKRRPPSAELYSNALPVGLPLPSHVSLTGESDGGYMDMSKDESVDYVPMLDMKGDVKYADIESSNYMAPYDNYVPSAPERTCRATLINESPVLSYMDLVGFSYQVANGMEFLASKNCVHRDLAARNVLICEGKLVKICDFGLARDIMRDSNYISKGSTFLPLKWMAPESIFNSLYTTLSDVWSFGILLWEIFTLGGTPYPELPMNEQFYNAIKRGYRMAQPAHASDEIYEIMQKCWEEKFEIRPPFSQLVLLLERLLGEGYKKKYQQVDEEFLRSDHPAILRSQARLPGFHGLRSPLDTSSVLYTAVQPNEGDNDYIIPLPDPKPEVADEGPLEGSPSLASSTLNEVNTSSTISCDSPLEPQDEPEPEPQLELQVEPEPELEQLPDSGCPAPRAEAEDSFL
GSK3A (human), sequence (P49840 whole entry, looked up): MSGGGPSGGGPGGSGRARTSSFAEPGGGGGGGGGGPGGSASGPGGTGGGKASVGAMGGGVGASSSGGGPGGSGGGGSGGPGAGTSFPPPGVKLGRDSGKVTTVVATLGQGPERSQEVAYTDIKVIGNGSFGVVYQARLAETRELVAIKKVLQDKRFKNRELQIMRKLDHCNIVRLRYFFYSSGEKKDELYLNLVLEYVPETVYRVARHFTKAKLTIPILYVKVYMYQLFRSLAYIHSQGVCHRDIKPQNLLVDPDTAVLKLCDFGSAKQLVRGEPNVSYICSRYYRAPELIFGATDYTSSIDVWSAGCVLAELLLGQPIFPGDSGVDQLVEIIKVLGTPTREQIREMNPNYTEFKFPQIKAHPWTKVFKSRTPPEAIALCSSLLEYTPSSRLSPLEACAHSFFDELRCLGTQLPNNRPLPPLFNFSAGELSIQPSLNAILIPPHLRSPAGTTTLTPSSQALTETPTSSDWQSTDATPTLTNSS
PAK2 (human), sequence (Q13177 whole entry, looked up): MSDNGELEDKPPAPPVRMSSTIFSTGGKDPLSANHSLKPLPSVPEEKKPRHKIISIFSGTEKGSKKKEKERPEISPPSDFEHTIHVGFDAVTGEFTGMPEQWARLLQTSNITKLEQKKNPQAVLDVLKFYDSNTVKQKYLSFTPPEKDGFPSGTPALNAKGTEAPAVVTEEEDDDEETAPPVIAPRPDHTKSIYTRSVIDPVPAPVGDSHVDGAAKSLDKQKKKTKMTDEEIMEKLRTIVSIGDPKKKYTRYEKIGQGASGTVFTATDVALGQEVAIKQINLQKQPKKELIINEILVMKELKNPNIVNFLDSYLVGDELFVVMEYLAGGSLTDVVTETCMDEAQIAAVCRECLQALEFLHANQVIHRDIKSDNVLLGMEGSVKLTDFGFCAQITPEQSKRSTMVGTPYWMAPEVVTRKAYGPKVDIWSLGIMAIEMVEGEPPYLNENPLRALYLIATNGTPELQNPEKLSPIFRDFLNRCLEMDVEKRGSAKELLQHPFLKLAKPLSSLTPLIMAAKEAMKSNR
LIMK2 (human), sequence (P53671 whole entry, looked up): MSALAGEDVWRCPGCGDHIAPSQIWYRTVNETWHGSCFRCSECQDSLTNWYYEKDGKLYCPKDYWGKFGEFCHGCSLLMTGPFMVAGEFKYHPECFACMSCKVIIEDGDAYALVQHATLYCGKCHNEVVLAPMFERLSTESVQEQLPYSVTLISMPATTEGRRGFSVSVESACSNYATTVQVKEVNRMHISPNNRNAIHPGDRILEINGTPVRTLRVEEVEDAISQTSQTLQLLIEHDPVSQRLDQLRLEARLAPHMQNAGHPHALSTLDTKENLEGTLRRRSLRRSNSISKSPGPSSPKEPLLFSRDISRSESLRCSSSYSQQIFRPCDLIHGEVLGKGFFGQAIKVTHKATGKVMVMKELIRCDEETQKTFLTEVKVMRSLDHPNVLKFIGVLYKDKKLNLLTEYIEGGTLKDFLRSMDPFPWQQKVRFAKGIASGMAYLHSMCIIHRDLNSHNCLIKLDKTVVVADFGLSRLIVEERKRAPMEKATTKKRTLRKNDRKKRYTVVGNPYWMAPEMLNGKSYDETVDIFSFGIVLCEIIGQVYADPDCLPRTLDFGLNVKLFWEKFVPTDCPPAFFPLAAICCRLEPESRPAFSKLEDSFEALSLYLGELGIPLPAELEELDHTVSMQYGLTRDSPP
MAPK6 (human), sequence (Q16659 whole entry, looked up): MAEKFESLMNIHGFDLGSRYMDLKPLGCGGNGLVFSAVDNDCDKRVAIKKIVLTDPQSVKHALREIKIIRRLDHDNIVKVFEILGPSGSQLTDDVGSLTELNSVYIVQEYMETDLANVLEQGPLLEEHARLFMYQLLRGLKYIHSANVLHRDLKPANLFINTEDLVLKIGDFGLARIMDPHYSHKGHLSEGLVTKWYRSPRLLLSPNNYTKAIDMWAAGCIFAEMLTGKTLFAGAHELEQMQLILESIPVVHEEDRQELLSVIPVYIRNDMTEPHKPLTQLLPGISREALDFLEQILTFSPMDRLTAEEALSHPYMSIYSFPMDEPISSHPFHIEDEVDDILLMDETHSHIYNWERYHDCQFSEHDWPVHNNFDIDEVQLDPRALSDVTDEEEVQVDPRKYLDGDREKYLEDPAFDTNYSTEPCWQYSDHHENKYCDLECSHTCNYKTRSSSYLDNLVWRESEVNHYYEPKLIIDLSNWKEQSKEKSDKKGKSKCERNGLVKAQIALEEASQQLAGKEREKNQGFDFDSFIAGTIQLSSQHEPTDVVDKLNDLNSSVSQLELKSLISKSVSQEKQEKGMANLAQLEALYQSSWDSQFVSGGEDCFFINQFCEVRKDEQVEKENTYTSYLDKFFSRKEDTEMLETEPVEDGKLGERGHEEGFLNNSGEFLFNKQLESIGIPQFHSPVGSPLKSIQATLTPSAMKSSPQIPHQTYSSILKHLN
PIP5K1A (human), sequence (Q99755 whole entry, looked up): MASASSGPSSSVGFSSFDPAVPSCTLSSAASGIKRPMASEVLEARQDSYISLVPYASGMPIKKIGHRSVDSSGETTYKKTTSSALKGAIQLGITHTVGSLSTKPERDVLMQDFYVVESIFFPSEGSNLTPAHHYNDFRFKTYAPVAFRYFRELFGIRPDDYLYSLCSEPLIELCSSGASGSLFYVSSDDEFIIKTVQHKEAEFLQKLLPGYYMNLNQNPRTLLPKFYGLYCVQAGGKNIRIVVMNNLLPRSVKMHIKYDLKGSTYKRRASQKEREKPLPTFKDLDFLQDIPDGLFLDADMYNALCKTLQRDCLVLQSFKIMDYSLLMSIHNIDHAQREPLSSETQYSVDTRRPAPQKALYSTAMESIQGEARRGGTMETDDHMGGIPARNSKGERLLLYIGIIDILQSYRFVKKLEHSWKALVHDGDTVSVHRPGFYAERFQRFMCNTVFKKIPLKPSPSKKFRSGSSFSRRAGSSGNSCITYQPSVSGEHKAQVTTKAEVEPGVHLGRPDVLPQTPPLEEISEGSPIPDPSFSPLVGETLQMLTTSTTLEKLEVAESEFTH
MAP2K3 (human), sequence (P46734 whole entry, looked up): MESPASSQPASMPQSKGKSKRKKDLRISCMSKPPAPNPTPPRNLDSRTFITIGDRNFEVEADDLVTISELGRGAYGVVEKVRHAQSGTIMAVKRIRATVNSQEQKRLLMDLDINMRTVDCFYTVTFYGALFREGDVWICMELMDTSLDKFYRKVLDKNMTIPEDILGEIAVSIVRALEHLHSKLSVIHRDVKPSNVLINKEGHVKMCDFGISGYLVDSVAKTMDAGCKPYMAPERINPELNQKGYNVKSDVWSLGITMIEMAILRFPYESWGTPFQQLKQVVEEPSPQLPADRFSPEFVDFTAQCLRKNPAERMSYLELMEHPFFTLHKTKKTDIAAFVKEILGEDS

Compound	kinase still bound, per cent of control (ACVR2B (human))	kinase still bound, per cent of control (AXL (human))	kinase still bound, per cent of control (CAMK2A (human))	kinase still bound, per cent of control (CDK11B (human))	kinase still bound, per cent of control (CSNK1G3 (human))	kinase still bound, per cent of control (EPHA5 (human))	kinase still bound, per cent of control (FER (human))	kinase still bound, per cent of control (FES (human))	kinase still bound, per cent of control (GSK3A (human))	kinase still bound, per cent of control (IKBKB (human))	kinase still bound, per cent of control (ITK (human))	kinase still bound, per cent of control [1]	kinase still bound, per cent of control [2]	kinase still bound, per cent of control (LCK (human))	kinase still bound, per cent of control (LIMK2 (human))	kinase still bound, per cent of control (MAP2K3 (human))	kinase still bound, per cent of control (MAP3K12 (human))	kinase still bound, per cent of control (MAP3K3 (human))	kinase still bound, per cent of control (MAPK15 (human))	kinase still bound, per cent of control (MAPK6 (human))	also measured
COc1cc(N2CCN(C)CC2)ccc1Nc1nc(N)c(C(=O)c2c(Cl)cccc2Cl)s1	92%	100%	20%	5.3%	79%	100%	82%	45%	67%	96%	91%	100%	92%	86%	94%	79%	97%	76%	84%	100%	kinase still bound, per cent of control (MARK4 (human)): 82%; kinase still bound, per cent of control (MST4 (human)): 100%; kinase still bound, per cent of control (MYLK4 (human)): 100%; kinase still bound, per cent of control (NEK5 (human)): 96%; kinase still bound, per cent of control (NUAK2 (human)): 60%; kinase still bound, per cent of control (PAK2 (human)): 100%; kinase still bound, per cent of control (PDGFRB (human)): 100%; kinase still bound, per cent of control (PIK3CD (human)): 98%; kinase still bound, per cent of control (PIP5K1A (human)): 88%; kinase still bound, per cent of control (PRKD1 (human)): 44%; kinase still bound, per cent of control (PRKG2 (human)): 74%; kinase still bound, per cent of control (ROCK2 (human)): 88%; kinase still bound, per cent of control (ROS1 (human)): 11%; kinase still bound, per cent of control (RPS6KA5 KD2 (human)): 96%; kinase still bound, per cent of control (SIK1 (human)): 86%; kinase still bound, per cent of control (TEC (human)): 69%; kinase still bound, per cent of control (TEK (human)): 88%; kinase still bound, per cent of control (TESK1 (human)): 100%; kinase still bound, per cent of control (TGFBR2 (human)): 92%; kinase still bound, per cent of control (TXK (human)): 100%
COc1cc(C(=O)NC2CCN(C)CC2)ccc1Nc1ncc2c(n1)N(C1CCCC1)C(C)CC(=O)N2C (stereo not given)	100%	100%	21%	100%	100%	100%	31%	100%	100%	100%	100%	22%	100%	100%	100%	100%	100%	100%	100%	100%	kinase still bound, per cent of control (MARK4 (human)): 100%; kinase still bound, per cent of control (MST4 (human)): 100%; kinase still bound, per cent of control (MYLK4 (human)): 100%; kinase still bound, per cent of control (NEK5 (human)): 100%; kinase still bound, per cent of control (NUAK2 (human)): 100%; kinase still bound, per cent of control (PAK2 (human)): 100%; kinase still bound, per cent of control (PDGFRB (human)): 100%; kinase still bound, per cent of control (PIK3CD (human)): 100%; kinase still bound, per cent of control (PIP5K1A (human)): 100%; kinase still bound, per cent of control (PRKD1 (human)): 100%; kinase still bound, per cent of control (PRKG2 (human)): 100%; kinase still bound, per cent of control (ROCK2 (human)): 100%; kinase still bound, per cent of control (ROS1 (human)): 100%; kinase still bound, per cent of control (RPS6KA5 KD2 (human)): 100%; kinase still bound, per cent of control (SIK1 (human)): 100%; kinase still bound, per cent of control (TEC (human)): 100%; kinase still bound, per cent of control (TEK (human)): 100%; kinase still bound, per cent of control (TESK1 (human)): 100%; kinase still bound, per cent of control (TGFBR2 (human)): 100%; kinase still bound, per cent of control (TXK (human)): 100%
C[C@@H](Oc1cc(-n2cnc3ccc(CN4CCN(C)CC4)cc32)sc1C(N)=O)c1ccccc1C(F)(F)F	100%	41%	4.9%	100%	100%	100%	100%	88%	100%	74%	89%	92%	16%	70%	100%	52%	57%	88%	52%	100%	kinase still bound, per cent of control (MARK4 (human)): 100%; kinase still bound, per cent of control (MST4 (human)): 95%; kinase still bound, per cent of control (MYLK4 (human)): 78%; kinase still bound, per cent of control (NEK5 (human)): 25%; kinase still bound, per cent of control (NUAK2 (human)): 1.2%; kinase still bound, per cent of control (PAK2 (human)): 38%; kinase still bound, per cent of control (PDGFRB (human)): 9.8%; kinase still bound, per cent of control (PIK3CD (human)): 14%; kinase still bound, per cent of control (PIP5K1A (human)): 14%; kinase still bound, per cent of control (PRKD1 (human)): 20%; kinase still bound, per cent of control (PRKG2 (human)): 95%; kinase still bound, per cent of control (ROCK2 (human)): 16%; kinase still bound, per cent of control (ROS1 (human)): 84%; kinase still bound, per cent of control (RPS6KA5 KD2 (human)): 34%; kinase still bound, per cent of control (SIK1 (human)): 78%; kinase still bound, per cent of control (TEC (human)): 91%; kinase still bound, per cent of control (TEK (human)): 78%; kinase still bound, per cent of control (TESK1 (human)): 100%; kinase still bound, per cent of control (TGFBR2 (human)): 100%; kinase still bound, per cent of control (TXK (human)): 71%
